Values quoted from earlier work in patent US20150079136A1, “CONTROLLED RELEASE PHARMACEUTICAL FORMULATIONS OF DIRECT THROMBIN INHIBITORS” (RUBICON RESEARCH PRIVATE LIMITED, priority 2012, published 2015).
Where a name gives a salt, the structure may show the parent alone. Read-outs that look alike come from different tables or passages of the source.

Key:
[1] = not given; remark: listed apart in the source
[2] = not given; remark: listed apart in the source
P-glycoprotein = P-glycoprotein (Homo sapiens, UniProt P08183)
Chain of P-glycoprotein (P08183 whole entry): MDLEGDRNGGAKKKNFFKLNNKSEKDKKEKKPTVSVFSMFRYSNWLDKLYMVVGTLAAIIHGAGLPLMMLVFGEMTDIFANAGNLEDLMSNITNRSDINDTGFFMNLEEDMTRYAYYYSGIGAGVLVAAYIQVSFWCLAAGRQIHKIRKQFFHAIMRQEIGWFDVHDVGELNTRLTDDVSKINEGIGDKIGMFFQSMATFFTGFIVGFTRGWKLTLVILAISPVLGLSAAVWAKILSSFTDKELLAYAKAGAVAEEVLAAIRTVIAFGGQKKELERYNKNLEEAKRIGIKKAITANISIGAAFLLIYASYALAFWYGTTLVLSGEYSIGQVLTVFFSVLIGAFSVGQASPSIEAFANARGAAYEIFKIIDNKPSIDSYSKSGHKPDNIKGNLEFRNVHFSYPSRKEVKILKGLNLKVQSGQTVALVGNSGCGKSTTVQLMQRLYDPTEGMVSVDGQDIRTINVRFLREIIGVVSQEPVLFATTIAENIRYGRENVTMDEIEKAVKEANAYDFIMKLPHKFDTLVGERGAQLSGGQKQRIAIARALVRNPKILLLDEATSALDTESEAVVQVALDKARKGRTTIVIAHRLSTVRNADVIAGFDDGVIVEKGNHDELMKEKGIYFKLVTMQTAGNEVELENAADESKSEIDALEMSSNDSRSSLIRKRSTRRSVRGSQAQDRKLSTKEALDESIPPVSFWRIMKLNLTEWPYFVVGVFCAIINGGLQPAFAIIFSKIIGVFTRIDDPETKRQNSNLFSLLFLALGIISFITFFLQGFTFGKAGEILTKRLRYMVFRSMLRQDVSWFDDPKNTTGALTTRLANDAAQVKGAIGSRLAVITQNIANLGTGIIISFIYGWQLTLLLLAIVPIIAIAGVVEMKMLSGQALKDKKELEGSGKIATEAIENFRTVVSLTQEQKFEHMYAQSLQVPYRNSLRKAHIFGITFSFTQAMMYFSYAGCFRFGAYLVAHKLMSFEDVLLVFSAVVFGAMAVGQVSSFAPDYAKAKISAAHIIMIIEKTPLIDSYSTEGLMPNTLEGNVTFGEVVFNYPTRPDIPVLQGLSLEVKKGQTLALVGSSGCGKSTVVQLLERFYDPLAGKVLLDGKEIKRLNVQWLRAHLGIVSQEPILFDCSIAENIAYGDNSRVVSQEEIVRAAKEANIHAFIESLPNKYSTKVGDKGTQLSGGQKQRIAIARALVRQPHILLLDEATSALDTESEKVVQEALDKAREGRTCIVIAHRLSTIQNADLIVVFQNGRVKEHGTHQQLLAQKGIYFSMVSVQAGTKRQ

| Structure (SMILES) | solubility in acidic media (acidic media) | solubility in neutral and basic media (neutral and basic media) | BCS class (poor aqueous solubility but good membrane permeability) | elimination half life ([1]; multiple dosing) | elimination half life ([1]; single dosing) [h] | sensitivity to light irradiation ([2]; light irradiation) | hygroscopicity ([2]; powder) | degradation in the presence of moisture ([2]; presence of moisture) | stability in the solid state ([2]; solid state) | effect of high-fat meal on the bioavailability of dabigatran ([1]; coadministration with a high-fat meal) | absolute bioavailability of dabigatran ([1]; following oral administration of dabigatran etexilate) | increase in oral bioavailability ([1]; marketed formulation, pellets taken without the capsule shell vs intact capsule) [%] | substrate of efflux transporter P-glycoprotein (P-glycoprotein) |
| --- | --- | --- | --- | --- | --- | --- | --- | --- | --- | --- | --- | --- | --- |
| CCCCCCOC(=O)NC(=N)c1ccc(NCc2nc3cc(C(=O)N(CCC(=O)OCC)c4ccccn4)ccc3n2C)cc1 [DEM, dabigatran etexilate mesylate] | rather high solubility | very poor solubility | Class II | about 8 hours | 12 to 17 | not sensitive | non-hygroscopic | predominantly undergoes degradation by hydrolytic pathways | stable |  |  |  |  |
| CCCCCCOC(=O)NC(=N)c1ccc(NCc2nc3cc(C(=O)N(CCC(=O)OCC)c4ccccn4)ccc3n2C)cc1 [dabigatran etexilate, 1-methyl-2-[N-[4-(N-n-hexyloxycarbonylamidino)phenyl]aminomethyl]benzimidazol-5-ylcarboxylic acid-N-(2-pyridyl)-N-(2 ethoxycarbonylethyl)amides] |  |  |  |  |  |  |  |  |  | no effect | 3-7% | 75 | substrate |
